What was measured:
[1] = tested on: LIM1215 human colon carcinoma cells; experiment: Cell growth inhibition assay (lactate dehydrogenase colour reaction), LIM1215; assay type: cell-based; conditions: for IC50: Homo sapiens, LIM1215
Method: Stock solutions of 5 mM doxorubicin and prodoxorubicin in DMF, respectively, were stored at 4° C. For cell growth inhibition assays, 250-μM dilutions of doxorubicin and prodoxorubicin in PBS (pH 7.4) were freshly prepared from the 5 mM stock solutions and further diluted in cell culture medium to yield 10 nM to 25 μM solutions. […] Stock solutions of 1 mM camptothecin and procamptothecin in DMF, respectively, were stored at 4° C. For cell growth inhibition assays, 100-μM dilutions of camptothecin and procamptothecin in PBS (pH 7.4) were freshly prepared from the 1 mM stock solutions and further diluted in cell culture medium to yield 10 nM to 1 μM solutions. Cells grown in culture flasks were trypsinized, washed with PBS, resuspended in cell culture medium, and reduced to a single cell suspension by passing through a 18 G needle. After counting, the cells were plated at a density of 5×10^3 (HT29) or 1×10^4 (LIM1215, LNCap) cells/well in 96-well tissue culture plates and maintained in culture as described above. Drugs were diluted to a final concentration range of 10 nM to 25 μM in 100 μl 10% fetal bovine serum in RPMI 1640 and added to the cells 24 hours after plating. […] After drug addition, the cells were maintained at 37° C. in 5% CO2for 3 to 5 days (72 to 120 hours). Prior to the quantitative cell growth inhibition assay, the cell density was qualitatively analyzed by microscopy. […] The cells were then washed with 150 μl PBS (pH 7.5) and incubated with 100 μl of 9% (v/v) Triton-X 100 (Sigma, St. Louis, Mo.) for 45 minutes at 37° C. The supernatant was then transferred to a 96-well V-shaped plate and centrifuged to remove cell debris. […] For quantification, 50 μl aliquots were transferred to another 96-well plate and the color was read at 490 nm in an ELISA plate reader. The absorbance data were converted to percent cell density with the untreated controls being 100% and the background of the color reaction being 0%.

[2] = tested on: HT29 human colon carcinoma cells; experiment: Cell growth inhibition assay (lactate dehydrogenase colour reaction), HT29; assay type: cell-based
Text: (§1) Human colon carcinoma cell lines HT29 and LIM1215 were kindly provided by Dr. Lloyd J. Old from The Ludwig Institute for Cancer Research in New York. Human prostate cancer cell line LNCap was purchased from American Type Culture Collection (Manassas, Va.). All cell lines were maintained in RPMI 1640 medium (Hyclone, Logan, Utah) supplemented with 10% fetal bovine serum (Life Technologies, Gaithersburg, Md.) and antibiotic-antimycotic reagents (Life Technologies) containing penicillin, streptomycin, and amphotericin B. The cell lines were cultivated in culture flasks at 37° C. in a humidifying incubator in an atmosphere of 5% CO2.
(§2) Stock solutions of 5 mM doxorubicin and prodoxorubicin in DMF, respectively, were stored at 4° C. For cell growth inhibition assays, 250-μM dilutions of doxorubicin and prodoxorubicin in PBS (pH 7.4) were freshly prepared from the 5 mM stock solutions and further diluted in cell culture medium to yield 10 nM to 25 μM solutions. Methyl vinyl ketone was purchased from Aldrich (Milwaukee, Wis.). Stock solutions of 1 mM camptothecin and procamptothecin in DMF, respectively, were stored at 4° C. […] Prior to the quantitative cell growth inhibition assay, the cell density was qualitatively analyzed by microscopy. This visual evaluation always matched the result of the quantitative analysis. […] For quantification, 50 μl aliquots were transferred to another 96-well plate and the color was read at 490 nm in an ELISA plate reader. The absorbance data were converted to percent cell density with the untreated controls being 100% and the background of the color reaction being 0%.
(§3) The antiproliferative effects of drug and prodrug were monitored by quantifying the cell growth in the presence of a range of concentrations of doxorubicin and prodoxorubicin, respectively. Three different human cancer cell lines were evaluated, human colon carcinoma cell lines HT29 and LIM1215 and human prostate cancer cell line LNCap. […]

[3] = tested on: human prostate cancer cell line LNCap; experiment: Cell growth inhibition assay (lactate dehydrogenase colour reaction), LNCap; assay type: cell-based
Text: as §1, §2, §3

antibody 38C2 = experiment: Kinetic analysis of antibody 38C2-catalyzed prodrug activation (RP-HPLC); assay type: biochemical, mouse
Method: All antibody reactions were carried out in PBS (pH 7.4) at 37° C. in microfuge tubes. […] Kinetic data were derived from Lineweaver-Burk plots. […] Topoisomerase I and II inhibitor doxorubicin was chosen as a model compound for this prodrug activation concept because its structure activity relationship is well characterized and it has been used previously in ADEPT systems (Niculescu-Duvaz, I. & Springer, C. J. (1997) Adv. Drug Delivery Rev. 26, 151-172). Doxorubicin is a drug approved for cancer therapy that suffers from misdirected toxicity. […] The tertiary aldol was chosen as the first reaction since no known natural enzyme catalyzes this particular type of retro-aldol reaction. […] Typically 38C2 is highly enantioselective, however, under the conditions studied, the reaction proceeded to completion indicative of loss of enantioselectivity and complete activation of the prodrug. According to a pharmacokinetic analysis of ADEPT systems, low kcat values combined with high Km values are expected to increase the tumor to blood ratio of the free drug, leading to a reduction in peripheral toxicity (Yuan, J., Baxter, L. T. & Jain, R. K. (1991). Cancer Res. 51, 3119-3130). […] To this end, both the masking linker and catalytic antibody are being optimized.

[4] = HT-29, 72 h after drug addition, 50% decrease in cell density vs untreated control
[5] = 72 h after drug addition, 50% decrease in cell density vs untreated control

SMILES	IC50 [2, 4] [µM]	IC50 [1, 5] [µM]	IC50 [3, 5] [µM]	also measured
C=CC(C)=O [methyl vinyl ketone]	–	–	–	cell growth inhibition when applied alone ([1]; LIM1215 cells, 120 h, without combination partner): no inhibition of cell growth
CC[C@@]1(O)C(=O)OCc2c1cc1n(c2=O)Cc2cc3ccccc3nc2-1 [camptothecin]	0.1 to 0.25	0.1 to 0.25	0.01 to 0.025	–
COc1cccc2c1C(=O)c1c(O)c3c(c(O)c1C2=O)C[C@@](O)(C(=O)CO)C[C@@H]3O[C@H]1C[C@H](N)[C@H](O)[C@H](C)O1 [doxorubicin]	3	0.4	0.4	IC50 ([2]; HT-29, 120 h after drug addition): 2.5 µM; IC50 ([1]; 120 h after drug addition): 0.4 µM; IC50 ([3]; 120 h after drug addition): 0.2 µM
CC(=O)CC(C)=O [2,4-pentanedione]	–	–	–	inhibition of 38C2 catalysis of prodoxorubicin cleavage (antibody 38C2): completely inhibited

Source: patent publication US6677435B2, “Prodrug activation using catalytic antibodies” (The Scripps Research Institute, priority 1999, dated 2004)
